Paper PMC5509550, “Development of a Novel Lead that Targets M. tuberculosis Polyketide Synthase 13” (Cell, 2017)
≈ marks a conversion by molar mass, not a printed value. Where two headings read alike, the source gives them in different places.

Key:
[1] = tested on: Mtb mc^27000; assay: microbe, parasite or virus in culture; type: cell-based, Mycobacterium tuberculosis; conditions: for MIC: Mycobacterium tuberculosis, read-out: MIC of the drug alone
[2] = target: T1, Mtb Pks13-TE domain (Mycobacterium tuberculosis, UniProt I6X8D2); assay: biochemical; conditions: mean ± SD of three independent measurements
T1 construct: The 283 residue long TE domain starting from residue 1451 in full length Pks13; His6 (TEV-cleavable) (N, cleaved yes); made in house; host or cells: E. coli BL21(DE3)pLysS
T1 sequence (I6X8D2 1451-1733 limits assumed): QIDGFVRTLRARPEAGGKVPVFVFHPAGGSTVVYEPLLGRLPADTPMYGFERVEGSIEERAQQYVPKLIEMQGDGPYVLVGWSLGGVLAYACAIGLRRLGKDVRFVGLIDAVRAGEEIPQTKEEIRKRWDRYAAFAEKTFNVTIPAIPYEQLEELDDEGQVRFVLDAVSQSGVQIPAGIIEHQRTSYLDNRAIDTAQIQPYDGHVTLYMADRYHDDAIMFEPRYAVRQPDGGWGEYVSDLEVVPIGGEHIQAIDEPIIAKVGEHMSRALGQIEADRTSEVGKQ

[3] = tested on: Mtb mc^27000; assay: microbe, parasite or virus in culture; type: cell-based, Mycobacterium tuberculosis; conditions: for MIC: Mtb mc^27000, liquid medium, 96-well plates
[4] = target: T2, CYP1A2 (Homo sapiens, UniProt P05177); assay: biochemical
T2 sequence (P05177 1-516): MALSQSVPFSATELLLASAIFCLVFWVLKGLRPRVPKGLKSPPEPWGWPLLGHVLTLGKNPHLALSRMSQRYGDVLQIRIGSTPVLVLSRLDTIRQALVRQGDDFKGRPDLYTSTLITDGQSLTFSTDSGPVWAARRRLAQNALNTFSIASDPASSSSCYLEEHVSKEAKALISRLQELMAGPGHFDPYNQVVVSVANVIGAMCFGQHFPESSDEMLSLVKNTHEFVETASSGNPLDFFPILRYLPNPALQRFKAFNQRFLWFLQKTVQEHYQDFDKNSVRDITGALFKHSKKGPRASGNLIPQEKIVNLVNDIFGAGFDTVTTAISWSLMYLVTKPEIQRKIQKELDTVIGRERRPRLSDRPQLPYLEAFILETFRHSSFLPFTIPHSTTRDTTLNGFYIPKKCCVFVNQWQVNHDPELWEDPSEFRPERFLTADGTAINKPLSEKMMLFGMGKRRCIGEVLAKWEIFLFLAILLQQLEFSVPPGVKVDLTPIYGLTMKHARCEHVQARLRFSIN

[5] = target: CYP2C9 (Homo sapiens, UniProt P11712); assay: biochemical
CYP2C9, sequence (P11712 whole entry): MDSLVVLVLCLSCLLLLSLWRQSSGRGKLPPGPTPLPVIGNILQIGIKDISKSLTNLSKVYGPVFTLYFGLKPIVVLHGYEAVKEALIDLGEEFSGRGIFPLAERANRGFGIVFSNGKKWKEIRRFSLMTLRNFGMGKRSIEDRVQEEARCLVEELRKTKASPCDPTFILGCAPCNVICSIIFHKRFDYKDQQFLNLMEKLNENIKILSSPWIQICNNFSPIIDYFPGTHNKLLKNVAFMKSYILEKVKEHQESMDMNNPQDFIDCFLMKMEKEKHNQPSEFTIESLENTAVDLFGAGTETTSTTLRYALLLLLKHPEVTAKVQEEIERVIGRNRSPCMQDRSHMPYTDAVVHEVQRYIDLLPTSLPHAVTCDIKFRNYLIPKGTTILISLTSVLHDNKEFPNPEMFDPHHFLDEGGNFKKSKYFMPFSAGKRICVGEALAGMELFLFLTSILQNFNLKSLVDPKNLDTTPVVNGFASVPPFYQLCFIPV

[6] = target: CYP2D6 (Homo sapiens, UniProt P10635); assay: biochemical
CYP2D6, sequence (P10635 whole entry): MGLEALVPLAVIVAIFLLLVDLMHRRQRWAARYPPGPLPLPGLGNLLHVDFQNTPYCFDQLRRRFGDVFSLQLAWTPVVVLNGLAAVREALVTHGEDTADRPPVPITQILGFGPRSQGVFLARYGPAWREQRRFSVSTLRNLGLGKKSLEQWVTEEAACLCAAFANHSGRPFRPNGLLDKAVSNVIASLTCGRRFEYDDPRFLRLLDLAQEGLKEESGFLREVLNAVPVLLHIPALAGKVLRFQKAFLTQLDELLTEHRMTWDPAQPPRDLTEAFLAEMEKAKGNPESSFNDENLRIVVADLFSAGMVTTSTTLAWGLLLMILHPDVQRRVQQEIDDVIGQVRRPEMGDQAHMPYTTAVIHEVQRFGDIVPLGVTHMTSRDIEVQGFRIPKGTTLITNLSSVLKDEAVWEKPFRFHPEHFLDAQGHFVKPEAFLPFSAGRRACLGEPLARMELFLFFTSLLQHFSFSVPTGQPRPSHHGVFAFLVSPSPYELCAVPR

[7] = tested on: M. tuberculosis Erdman; parameters: species or system Mycobacterium tuberculosis; conditions: in vivo
[8] = Stability in mouse serum
[9] = Microsomal stability assay, mouse liver microsomes; conditions: metabolite identification
[10] = tested on: M. tuberculosis H37Rv; parameters: species or system Mycobacterium tuberculosis; conditions: in vivo
[11] = tested on: M. tuberculosis Erdman; parameters: species or system Mycobacterium tuberculosis; conditions: in vivo; remark: listed apart in the source
[12] = single drug in the synergy study

SMILES: [H]/N=C(/N)N[C@H]1[C@H](O)[C@@H](O)[C@H](O[C@@H]2O[C@@H](C)[C@](O)(C=O)[C@H]2O[C@@H]2O[C@@H](CO)[C@H](O)[C@@H](O)[C@@H]2NC)[C@@H](N/C(N)=N\[H])[C@@H]1O [SM, Streptomycin]
- MIC of SM in combination [1]: 0.037 µM
- improvement of MIC of SM in combination [1]: ~2 fold
- MIC [1, 12]: 0.07 µM

SMILES: CCOC(=O)c1c(-c2ccc(O)nc2)oc2ccc(O)c(CN3CCCCC3)c12 [TAM17, Ethyl 5-hydroxy-2-(6-hydroxypyridin-3-yl)-4-(piperidin-1-ylmethyl)benzofuran-3-carboxylate]
- IC50 [2]: 360 ± 40 nM
- MIC ([3]; Mycobacterium tuberculosis): 4 µM (≈ 1.59 µg/mL)

SMILES: CCOC(=O)c1c(-c2ccc(O)cc2)oc2ccc(O)c(CN3CCCCC3)c12 [TAM13, Ethyl 5-hydroxy-2-(4-hydroxyphenyl)-4-(piperidin-1-ylmethyl)benzofuran-3-carboxylate]
- IC50 [2]: 170 ± 20 nM

SMILES: CCOC(=O)c1c(-c2ccccc2)oc2ccc(O)c(CN3CCCC(CO)C3)c12 (centres unmarked) [TAM21, Ethyl 5-hydroxy-4-((3-(hydroxymethyl)piperidin-1-yl)methyl)-2-phenylbenzofuran-3-carboxylate]
- IC50 [2]: 420 ± 40 nM
- MIC ([3]; Mycobacterium tuberculosis): 10 µM (≈ 4.09 µg/mL)

SMILES: CCOC(=O)c1c(-c2ccccc2)oc2ccc(O)c(CN3CCCCC3CO)c12 (centres unmarked) [TAM22, Ethyl 5-hydroxy-4-((2-(hydroxymethyl)piperidin-1-yl)methyl)-2-phenylbenzofuran-3-carboxylate]
- IC50 [2]: > 10000 nM
- MIC ([3]; Mycobacterium tuberculosis): > 10 µM

SMILES: COc1nc2ccc(Br)cc2cc1[C@@H](c1ccccc1)[C@@](O)(CCN(C)C)c1cccc2ccccc12 [TMC207, Bedaquiline]
- MIC of TMC207 in combination [1]: 0.005 µM
- improvement of MIC of TMC207 in combination [1]: 2.6 fold
- MIC [1, 12]: 0.013 µM

SMILES: CCOC(=O)c1c(-c2ccccc2)oc2ccc(O)c(CN3CCCCC3)c12 [TAM9, Ethyl 5-hydroxy-2-phenyl-4-(piperidin-1-ylmethyl)benzofuran-3-carboxylate]
- IC50 [2]: 260 ± 40 nM
- MIC ([3]; Mycobacterium tuberculosis): 0.4 µM (≈ 0.152 µg/mL)
- Mouse Cli. (intrinsic clearance in mouse liver microsomes): 26.9 mL/min/g

SMILES: CCOC(=O)c1c(-c2ccccc2)oc2ccc(O)c(CN3CCCC3)c12.Cl [TAM3, ethyl 5-hydroxy-2-phenyl-4-(1-pyrrolidinylmethyl)-1-benzofuran-3-carboxylate hydrochloride]
- IC50 [2]: 240 ± 20 nM
- MIC [3]: 4.1 µM

SMILES: CCOC(=O)c1c(-c2ccccc2)oc2ccc(O)c(CN3CCCC(C)C3)c12 (centres unmarked) [TAM2, ethyl 5-hydroxy-4-[(3-methyl-1-piperidinyl)methyl]-2-phenyl-1-benzofuran-3-carboxylate]
- IC50 [2]: 120 ± 20 nM
- MIC ([3]; Mycobacterium tuberculosis): 4.4 µM (≈ 1.73 µg/mL)

SMILES: CCOC(=O)c1c(-c2ccccc2)oc2ccc(O)c(Cc3ccccc3)c12 [TAM8, Ethyl 4-benzyl-5-hydroxy-2-phenylbenzofuran-3-carboxylate]
- IC50 [2]: 11900 ± 2300 nM
- MIC ([3]; Mycobacterium tuberculosis): > 40 µM

SMILES: CCOC(=O)c1c(-c2ccccc2)oc2ccc(OC)c(CN3CCCCC3)c12 [TAM14, Ethyl 5-methoxy-2-phenyl-4-(piperidin-1-ylmethyl)benzofuran-3-carboxylate]
- IC50 [2]: 35800 ± 2200 nM

SMILES: CCOC(=O)c1c(-c2ccccc2)oc2ccc(O)c(CN3CCOCC3)c12 [TAM5, ethyl 5-hydroxy-4-(4-morpholinylmethyl)-2-phenyl-1-benzofuran-3-carboxylate]
- IC50 [2]: 710 ± 50 nM
- MIC ([3]; Mycobacterium tuberculosis): 13.3 µM (≈ 5.07 µg/mL)

SMILES: CCOC(=O)c1c(-c2ccccc2)oc2ccc(O)c(CN3CCCCCC3)c12.Cl [TAM4, ethyl 4-(1-azepanylmethyl)-5-hydroxy-2-phenyl-1-benzofuran-3-carboxylate hydrochloride]
- IC50 [2]: 280 ± 30 nM
- MIC [3]: 4.6 µM

SMILES: CNC(=O)c1c(-c2ccc(O)cc2)oc2cc(O)cc(CN3CCCCC3)c12 [TAM19, 6-hydroxy-2-(4-hydroxyphenyl)-N-methyl-4-(piperidin-1-ylmethyl)benzofuran-3-carboxamide]
- IC50 [2]: 570 ± 30 nM
- MIC ([3]; Mycobacterium tuberculosis): 1 µM (≈ 0.38 µg/mL)

SMILES: Clc1ccc(COC(Cn2ccnc2)c2ccc(Cl)cc2Cl)c(Cl)c1 (centres unmarked) [Miconazole]
- IC50 [4]: 1100 nM
- IC50 [5]: > 10000 nM
- IC50 [6]: 200 nM

SMILES: O=C(O)c1c(-c2ccccc2)oc2ccc(O)c(CN3CCCCC3)c12 [TAM10, 5-hydroxy-2-phenyl-4-(piperidin-1-ylmethyl)benzofuran-3-carboxylic acid]
- IC50 [2]: 6600 ± 700 nM

SMILES: CCOC(=O)c1c(-c2ccccc2)oc2cccc(CN3CCCCC3)c12 [TAM15, Ethyl 2-phenyl-4-(piperidin-1-ylmethyl)benzofuran-3-carboxylate]
- IC50 [2]: 2000 ± 100 nM
- MIC ([3]; Mycobacterium tuberculosis): 16 µM (≈ 5.82 µg/mL)

SMILES: CCOC(=O)c1c(-c2ccccc2)oc2cc(O)cc(CN3CCCCC3)c12 [TAM20, Ethyl 6-hydroxy-2-phenyl-4-(piperidin-1-ylmethyl)benzofuran-3-carboxylate]
- IC50 [2]: 450 ± 40 nM
- MIC ([3]; Mycobacterium tuberculosis): 1.1 µM (≈ 0.417 µg/mL)

SMILES: CCOC(=O)c1c(-c2ccccc2)oc2ccc(O)c(CN(C)C)c12 [TAM6, ethyl 4-[(dimethylamino)methyl]-5-hydroxy-2-phenyl-1-benzofuran-3-carboxylate]
- IC50 [2]: 1570 ± 150 nM
- MIC ([3]; Mycobacterium tuberculosis): 7.3 µM (≈ 2.48 µg/mL)

SMILES: CO[C@H]1/C=C/O[C@@]2(C)Oc3c(C)c(O)c4c(O)c(c(/C=N/N5CCN(C)CC5)c(O)c4c3C2=O)NC(=O)/C(C)=C\C=C\[C@H](C)[C@H](O)[C@@H](C)[C@@H](O)[C@@H](C)[C@H](OC(C)=O)[C@@H]1C [RIF, Rifampicin]
- MIC of RIF in combination [1]: 0.011 µM
- improvement of MIC of RIF in combination [1]: ~3 fold
- MIC [1]: 0.35 µM
- CFU reduction in lungs compared to untreated control [7]: ~2.4 log10 CFU

SMILES: CCOC(=O)c1c(-c2ccccc2)oc2ccc(O)c(CN3CCC(C)CC3)c12 [TAM1, ethyl 5-hydroxy-4-[(4-methyl-1-piperidinyl)methyl]-2-phenyl-1-benzofuran-3-carboxylate]
- MIC ([3]; Mycobacterium tuberculosis): 2.3 µM (≈ 0.905 µg/mL)
- stability in mouse serum [8]: cleaved to the inactive acid
- metabolism in mouse liver microsomes [9]: hydroxylated

SMILES: CCOC(=O)c1c(-c2ccccc2)oc2ccc(O)c(CC3CCCCC3)c12 [TAM11, Ethyl 4-(cyclohexylmethyl)-5-hydroxy-2-phenylbenzofuran-3-carboxylate]
- IC50 [2]: 19600 ± 1400 nM
- MIC ([3]; Mycobacterium tuberculosis): 5.2 µM (≈ 1.97 µg/mL)

SMILES: CCOC(=O)c1c(-c2ccc(O)cc2)oc2ccc(O)c(CN3CCCC(CO)C3)c12 (centres unmarked) [TAM23, Ethyl 5-hydroxy-4-((3-(hydroxymethyl)piperidin-1-yl)methyl)-2-(4-hydroxyphenyl)benzofuran-3-carboxylate]
- IC50 [2]: 380 ± 10 nM
- MIC ([3]; Mycobacterium tuberculosis): 2.5 µM (≈ 1.06 µg/mL)

SMILES: CNC(=O)c1c(-c2ccccc2)oc2ccc(O)c(CN3CCCC(CO)C3)c12 (centres unmarked) [TAM24, 5-Hydroxy-4-((3-(hydroxymethyl)piperidin-1-yl)methyl)-N-methyl-2-phenylbenzofuran-3-carboxamide]
- IC50 [2]: 2100 ± 300 nM
- MIC ([3]; Mycobacterium tuberculosis): 0.5 µM (≈ 0.197 µg/mL)

SMILES: CNC(=O)c1c(-c2ccc(O)c(F)c2)oc2ccc(O)c(CN3CCCCC3)c12 [TAM18, 2-(3-fluoro-4-hydroxyphenyl)-5-hydroxy-N-methyl-4-(piperidin-1-ylmethyl)benzofuran-3-carboxamide]
- IC50 [2]: 330 ± 30 nM
- MIC ([3]; Mycobacterium tuberculosis): 0.5 µM (≈ 0.199 µg/mL)

SMILES: NNC(=O)c1ccncc1 [INH, Isoniazid]
- lung CFU after 2 weeks of treatment [10]: ~6.7 log10
- reduction in lung CFU counts compared with untreated control [11]: ~1.1 log10
- reduction in spleen bacterial burden relative to untreated control [11]: ~2.5 log10 CFU

SMILES: CCOC(=O)c1c(-c2ccccc2)oc2ccc(O)cc12 [TAM7, Ethyl 5-hydroxy-2-phenylbenzofuran-3-carboxylate]
- IC50 [2]: 20000 ± 1900 nM
- MIC ([3]; Mycobacterium tuberculosis): 20 µM (≈ 5.65 µg/mL)

SMILES: CNC(=O)c1c(-c2ccccc2)oc2ccc(O)c(CN3CCCCC3)c12 [TAM12, 5-hydroxy-N-methyl-2-phenyl-4-(piperidin-1-ylmethyl)benzofuran-3-carboxamide]
- better whole-cell activity than ethyl ester analog TAM9 [3]: 2 fold
- MIC ([3]; Mycobacterium tuberculosis): 0.2 µM (≈ 0.0729 µg/mL)
- Mouse Cli. (intrinsic clearance in mouse liver microsomes): 50 mL/min/g
